We go through nine compounds from patent publication US20260217674A1 (priority 2023, published 2026).

In experiment [1] the target is acetylcholinesterase (AChE) (Homo sapiens, UniProt P22303). As to the kind of experiment: biochemical. It counts as biochemical. Particulars: for inhibition at 0.001 µM: read-out: % Inhibition (1 nM); for inhibition at 0.01 µM: read-out: % Inhibition (10 nM); for inhibition at 0.1 µM: read-out: % Inhibition (100 nM). How it is done:
A solution of each tested compound is prepared by dissolving the compound in DMSO at 1 mM stock solution and diluting with water to the following concentration 100 nM, 10 nM and 1 nM.
The procedure of MAK119 kit assay of Sigma Aldrich (colorimetric test) has been followed as described:
The Working Reagent (MAK119C) of the kit is prepared fresh and used within 30 minutes.
A solution B made with […] of water and […] of Calibrator (MAK119B of the kit) is distributed into separate wells of the 96-well plate. […] of the solution of the tested compound is added into wells and then […] of the solution A is added to all sample wells.
The plate was incubated at room temperature for 2 min and the initial absorbance at 412 nm (A412)ini was measured. After 10 min of incubation at room temperature the final measurement (A412)final.
The following calculation is then achieved: […] Inhibition was calculated by comparing the absorbance of the samples containing the tested compounds at 412 nm (A412) and of the absorbance of the negative and positive controls after 12 min of incubation.

Experiment [2] deals with VGLUT3^T8I/T8I mice. Kind of experiment: Activity-based anorexia (ABA) model in hypocholinergic VGLUT3^T8I/T8I mice. It counts as in vivo. The settings on record: for percentage of mice weighing at least 75% of their baseline body weight: after 8 days. From the text: Self-starvation behaviors are modeled in the activity-based anorexia (ABA) test (Klenotich, S. J., Dulawa, 2012 Methods Mol Biol 829, 377-93). In this test, animals are housed in the presence of a running wheel. Access to food is progressively restricted over a period of 8 days. For these animal experiments, an hypocholinergic mouse model was used. The type 3 atypical vesicular transporter (VGLUT3) is expressed by all cholinergic striatal interneurons (El Mestikawy et al. 2011, Nat Rev Neurosci 12(4), 204-16).
In 2015, the El Mestikawy team discovered a p.T8I variant of VGLUT3 expressed in patients suffering from substance use disorder and from eating disorders (Sakae et al. Mol Psychiatry, 2015, 20(11), 1448-59). Mice expressing this variant (VGLUT3^T8I/T8I mice) have a reduced cholinergic tone in the striatum and are more vulnerable to self-starvation in the ABA model. In other terms, VGLUT3^T8I/T8I mice present the same main symptomology than anorexic patients and are considered to be a model of choice for anorexia.
The ABA model was performed as described by Klenotich and Dulawa (Klenotich, S. J., Dulawa, 2012 Methods Mol Biol 829, 377-93) and as previously reported (Favier, M., et al., J Clin Invest 130, 6616-6630 (2020)). For habituation, all mice were individually housed in cages with running wheels for 7 days with unrestricted access to food, water and running wheel. After the adaptation period, all mice were maintained in the same running wheel cages for 8 additional days. Access to food was progressively restricted, from 8 h (day 1) to 2 h (day 8) per day. Body weight and food intake were measured daily before and after food access, respectively. […]. Mice were treated daily 30 min before the start of food access, during both baseline and food restriction phases.

The mark [3] stands for this setting: compound 1 nM, absorbance 412 nm, 12 min incubation.
The mark [4] stands for this setting: compound 10 nM, absorbance 412 nm, 12 min incubation.
Where [5] appears, read: compound 100 nM, absorbance 412 nm, 12 min incubation.

Structures are written as SMILES. Read-outs that look alike come from different tables or passages of the source.

Chain of acetylcholinesterase (AChE) (P22303 32-614): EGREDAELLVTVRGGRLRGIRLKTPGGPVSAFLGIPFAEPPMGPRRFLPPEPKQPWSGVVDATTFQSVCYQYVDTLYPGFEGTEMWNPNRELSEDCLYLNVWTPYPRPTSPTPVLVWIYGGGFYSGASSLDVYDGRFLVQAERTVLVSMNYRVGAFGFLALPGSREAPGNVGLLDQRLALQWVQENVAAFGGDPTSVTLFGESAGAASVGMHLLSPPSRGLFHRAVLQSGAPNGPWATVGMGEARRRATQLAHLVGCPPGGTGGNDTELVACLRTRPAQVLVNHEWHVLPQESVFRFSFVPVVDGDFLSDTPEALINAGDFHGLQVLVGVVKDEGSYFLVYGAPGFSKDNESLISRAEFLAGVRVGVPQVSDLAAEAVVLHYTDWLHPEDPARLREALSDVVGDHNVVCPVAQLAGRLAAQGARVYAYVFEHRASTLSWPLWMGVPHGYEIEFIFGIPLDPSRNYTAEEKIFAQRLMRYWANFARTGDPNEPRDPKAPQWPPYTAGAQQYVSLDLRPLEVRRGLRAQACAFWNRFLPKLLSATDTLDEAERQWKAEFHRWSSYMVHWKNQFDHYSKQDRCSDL

The inhibition is the relative decrease from the control value, in per cent. Consider `COc1ccc2c(c1)C=C/C(=C/Oc1cc3c(cc1OC)C(=O)C(CC1CCN(Cc4ccccc4)CC1)C3)N2C(C)C` (centres unmarked) [Compound 56], for which the inhibition at 0.001 µM in experiment [1] (setting [3]) is 50%. Also, the inhibition at 0.01 µM in experiment [1] (setting [4]) stood at 75%. The inhibition at 0.1 µM in experiment [1] (setting [5]) was determined as 100%. For the same compound, the “percentage of mice weighing at least 75% of their baseline body weight” value is listed as “about 90%” in experiment [2] (0.01 mg/kg daily i.p.) and 60% in experiment [2] (0.03 mg/kg daily i.p., FIG. 1(B)). Further, the “efficiency in reducing the food restriction (food intake)” value in experiment [2] (donquine 0.01 mg/kg versus donepezil 0.03 mg/kg daily i.p., FIG. 1(C)) was “more efficient than donepezil at 0.03 mg/kg”.
As to `COc1cc2c(cc1OC[n+]1cccc3ccc(O)cc31)CC(CC1CCN(Cc3ccccc3)CC1)C2=O` (centres unmarked) [Compound 57], in experiment [1], the inhibition at 0.01 µM came out at 100% and the inhibition at 0.1 µM amounted to 100%.
Turning to `COc1cc2c(cc1OC[n+]1cccc3cccc(N)c31)CC(CC1CCN(Cc3ccccc3)CC1)C2=O` (centres unmarked) [Compound 59], the inhibition at 0.01 µM in experiment [1] (setting [4]) is 100%. Also, the inhibition at 0.1 µM in experiment [1] (setting [5]) came out at 100%.
Turning to `COc1cc2c(cc1OCc1ccc3cccc(N)c3[n+]1C)CC(CC1CCN(Cc3ccccc3)CC1)C2=O` (centres unmarked) [Compound 62], the inhibition at 0.01 µM in experiment [1] (setting [4]) amounted to 100%. The inhibition at 0.1 µM in experiment [1] (setting [5]) came out at 100%.
As to `COc1cc2c(cc1OCc1ccc3c(Cl)cc[n+](C)c3c1)CC(CC1CCN(Cc3ccccc3)CC1)C2=O` (centres unmarked) [Compound 63], in experiment [1], the inhibition at 0.001 µM came to 75%, the inhibition at 0.01 µM was determined as 75% and the inhibition at 0.1 µM was 75%.
Regarding `COc1cc2c(cc1OCc1ccc3ccc[n+](C)c3c1)CC(CC1CCN(Cc3ccccc3)CC1)C2=O` (centres unmarked) [Compound 64], the inhibition at 0.001 µM in experiment [1] (setting [3]) turned out to be 25%. The inhibition at 0.01 µM in experiment [1] (setting [4]) amounted to 100%. For the same compound, the inhibition at 0.1 µM in experiment [1] (setting [5]) came to 100%.
Consider `COc1cc2c(cc1OCc1cc[n+](C(C)C)c3ccccc13)CC(CC1CCN(Cc3ccccc3)CC1)C2=O` (centres unmarked) [Compound 75], for which the “% Inhibition (10 nM)” value in experiment [1] (setting [4]) amounted to 100%. The “% Inhibition (100 nM)” value in experiment [1] (setting [5]) turned out to be 100%.
For `COc1cc2c(cc1OCc1ccc3ccccc3[n+]1C(C)C)CC(CC1CCN(Cc3ccccc3)CC1)C2=O` (centres unmarked) [Compound 76], the inhibition at 0.01 µM in experiment [1] (setting [4]) was 100%. Besides, in experiment [1] (setting [5]), the inhibition at 0.1 µM stood at 100%.
As to `COc1cc2c(cc1OC)C(=O)C(CC1CCN(Cc3ccccc3)CC1)C2` (centres unmarked) [Donepezil, donepezil, reference compound], the “efficiency in reducing the number of mice losing weight until 75% of baseline bodyweight or less” value in experiment [2] (donepezil 0.03 mg/kg versus donquine 0.01 mg/kg daily i.p., FIG. 1(D)) is “less efficient”.
